Data taken from patent publication US12371454B2, “Cyclic peptide compound having Kras inhibitory action” (priority 2019, dated 2025).
pIC50: −log10 of the molar value. Starred links: 1 amine or outer side, 2 acyl side, 3 side chain; linkers in the order of their positions; H or OH if unused. Positions of bridges follow the written chain, without caps; N, C: chain ends. Non-standard residues stand in square brackets, D forms with d. Residues, ends and D or L forms follow the SMILES beside them. *: point of attachment. hPhe(3-Cl-4-CF3) = N[C@@H](CCc1ccc(C(F)(F)F)c(Cl)c1)C(=O)O; hPhe(3-F,4-CF3) = N[C@@H](CCc1ccc(C(F)(F)F)c(F)c1)C(=O)O; Pro(trans-4-Ph) = O=C(O)[C@@H]1C[C@@H](c2ccccc2)CN1; Pro(cis-4-Ph) = O=C(O)[C@@H]1C[C@H](c2ccccc2)CN1; X86 = O=C([C@H](CCc1ccc2occc2c1)N[*:1])[*:2]; NMePhe(4-Me) = CN[C@@H](Cc1ccc(C)cc1)C(=O)O; NMedβ3hAla = C[C@H](CC(=O)[*:2])N(C)[*:1]; NMeAla(cPent) = CN[C@@H](CC1CCCC1)C(=O)O; NMeGly(cPent) = CN[C@H](C(=O)O)C1CCCC1; mXylylene = c1cc(C[*:1])cc(C[*:2])c1; oXylylene = c1ccc(C[*:2])c(C[*:1])c1; NMeCha = CN[C@@H](CC1CCCCC1)C(=O)O; NMehLeu = CN[C@@H](CCC(C)C)C(=O)O; Hyp = O=C(O)[C@@H]1C[C@@H](O)CN1; NEtLeu = CCN[C@@H](CC(C)C)C(=O)O; NMeChg = CN[C@H](C(=O)O)C1CCCCC1; NMeI = CC[C@H](C)[C@H](NC)C(=O)O; Gly(cBu) = N[C@H](C(=O)O)C1CCC1; NMeD = CN[C@@H](CC(=O)O)C(=O)O; NMeL = CN[C@@H](CC(C)C)C(=O)O; NMeNle = CCCC[C@H](NC)C(=O)O; NMeV = CN[C@H](C(=O)O)C(C)C; d(β3hA) = C[C@@H](N)CC(=O)O; NMeS = CN[C@@H](CO)C(=O)O; Morpholide = C1CN(*)CCO1; NMeA = CN[C@@H](C)C(=O)O; Piperidide = C1CCN(*)CC1; Pyrrolidide = C1CCN(*)C1; Ac5c = NC1(C(=O)O)CCCC1; Aze = O=C(O)[C@@H]1CCN1; Cyclobutyl = C1CC(*)C1; Sar = CNCC(=O)O; Propyl = CCC*

tested on: Human pancreatic cancer cell line AsPC-1; assay: Measurement of AsPC-1 cell growth inhibition (AsPC-1 CGI); assay type: cell-based; settings: 96 h
How it was run: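 AsPC-1 cells in 15% FBS RPMI-1640 were exposed to test compound for 96 hours at 37° C, with CellTiter-Glo as endpoint.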

pIC50	SMILES
6.30 to 7.00	CC(C)C[C@H]1C(=O)N[C@@H](C2CCC2)C(=O)N(C)[C@@H](C)C(=O)N2CC[C@H]2C(=O)N(C)[C@@H](CC2CCCCC2)C(=O)N(C)CC(=O)N[C@@H](CCc2ccc(C(F)(F)F)c(Cl)c2)C(=O)N2CCC[C@H]2C(=O)NC2(CCCC2)C(=O)N(C)[C@@H](C(C)C)C(=O)N[C@H](C)CC(=O)N1C [Compound 580] (cyclo([Ac5c][NMeV][d(β3hA)][NMeL][Gly(cBu)][NMeA][Aze][NMeCha][Sar][hPhe(3-Cl-4-CF3)]P))
6.30 to 7.00	CC[C@H](C)[C@@H]1NC(=O)[C@H](CC(C)C)N(C)C(=O)C[C@@H](C(=O)N2CCCC2)N(C)C(=O)[C@H](C(C)C)N(C)C(=O)C2(CCCC2)NC(=O)[C@@H]2CCCN2C(=O)[C@H](CCc2ccc(C(F)(F)F)c(Cl)c2)NC(=O)CN(C)C(=O)[C@H](Cc2ccc(C)cc2)N(C)C(=O)[C@@H]2CCN2C(=O)[C@H](C)N(C)C1=O [Compound 1866] ([NMeL]I[NMeA][Aze][NMePhe(4-Me)][Sar][hPhe(3-Cl-4-CF3)]P[Ac5c][NMeV][NMeD]-Pyrrolidide; lactam N-11)
6.30 to 7.00	CC[C@H](C)[C@@H]1NC(=O)[C@H](C)N(C)C(=O)C[C@@H](C)NC(=O)[C@H](C2CCCC2)N(C)C(=O)C2(CCCC2)NC(=O)[C@@H]2CCCN2C(=O)[C@H](CCc2ccc(C(F)(F)F)c(Cl)c2)NC(=O)CN(C)C(=O)[C@H](Cc2ccc(C)cc2)N(C)C(=O)CN(C)C(=O)CN(C)C1=O [Compound 1485] (cyclo([Ac5c][NMeGly(cPent)][d(β3hA)][NMeA]I[Sar][Sar][NMePhe(4-Me)][Sar][hPhe(3-Cl-4-CF3)]P))
7.30 to 7.70	CC[C@H](C)[C@@H]1NC(=O)[C@H](CC(C)C)N(C)C(=O)C[C@@H](C)N(C)C(=O)[C@H](C2CCCC2)N(C)C(=O)C2(CCCC2)NC(=O)[C@@H]2CCCN2C(=O)[C@H](CCc2ccc(C(F)(F)F)c(F)c2)NC(=O)CN(C)C(=O)[C@H](C2CCCC2)N(C)C(=O)[C@@H]2CCN2C(=O)[C@H](C)N(C)C1=O [Compound 386] (cyclo([Ac5c][NMeGly(cPent)][NMedβ3hAla][NMeL]I[NMeA][Aze][NMeGly(cPent)][Sar][hPhe(3-F,4-CF3)]P))
6.30 to 7.00	CC[C@H](C)[C@@H]1NC(=O)[C@H](CC(C)C)N(CC)C(=O)C[C@@H](C(=O)N2CCOCC2)N(C)C(=O)[C@H](C2CCCC2)N(C)C(=O)C2(CCCC2)NC(=O)[C@@H]2CCCN2C(=O)[C@H](CCc2ccc(C(F)(F)F)c(Cl)c2)NC(=O)CN(C)C(=O)[C@H](C2CCCC2)N(C)C(=O)[C@@H]2CCN2C(=O)[C@H](C)NC1=O [Compound 1140] ([NEtLeu]IA[Aze][NMeGly(cPent)][Sar][hPhe(3-Cl-4-CF3)]P[Ac5c][NMeGly(cPent)][NMeD]-Morpholide; lactam N-11)
6.30 to 7.00	CC[C@H](C)[C@@H]1NC(=O)[C@H](CC(C)C)N(C)C(=O)C[C@@H](C)NC(=O)[C@H](C2CCCC2)N(C)C(=O)C2(CCCC2)NC(=O)[C@@H]2CCCN2C(=O)[C@H](CCc2ccc(C(F)(F)F)c(Cl)c2)NC(=O)CN(C)C(=O)[C@H](CC2CCCCC2)N(C)C(=O)[C@@H]2CCN2C(=O)[C@H](C)N(C)C1=O [Compound 1477] (cyclo([Ac5c][NMeGly(cPent)][d(β3hA)][NMeL]I[NMeA][Aze][NMeCha][Sar][hPhe(3-Cl-4-CF3)]P))
7.30 to 7.70	CC[C@H](C)[C@@H]1NC(=O)[C@H](CC2CCCC2)N(C)C(=O)C[C@@H](C(=O)N(C)C)N(C)C(=O)[C@H](C2CCCC2)N(C)C(=O)C2(CCCC2)NC(=O)[C@@H]2CCCN2C(=O)[C@H](CCc2ccc(C(F)(F)F)c(F)c2)NC(=O)CN(C)C(=O)[C@H](CC2CCCCC2)N(C)C(=O)[C@@H]2CCN2C(=O)[C@H](C)NC1=O [Compound 1340] ([NMeAla(cPent)]IA[Aze][NMeCha][Sar][hPhe(3-F,4-CF3)]P[Ac5c][NMeGly(cPent)][NMeD]-NMe2; lactam N-11)

Second part, the compound before the results:

SMILES	pIC50
CC[C@H](C)[C@@H]1NC(=O)[C@H](CC(C)C)N(C)C(=O)C[C@@H](C(=O)N2CCCCC2)N(C)C(=O)[C@H]([C@@H](C)CC)N(C)C(=O)C2(CCCC2)NC(=O)[C@@H]2CCCN2C(=O)[C@H](CCc2ccc(C(F)(F)F)c(Cl)c2)NC(=O)CN(C)C(=O)[C@H](COC2CCC2)N(C)C(=O)[C@@H]2CCN2C(=O)[C@H](C)N(C)C1=O [Compound 885] ([NMeL]I[NMeA][Aze][NMeS](Cyclobutyl)[Sar][hPhe(3-Cl-4-CF3)]P[Ac5c][NMeI][NMeD]-Piperidide; lactam N-11)	7.30 to 7.70
CC[C@H](C)[C@@H]1NC(=O)[C@H](CC(C)C)N(C)C(=O)C[C@@H](C(=O)N2CCCCC2)N(C)C(=O)[C@H](CC(C)C)N(C)C(=O)C2(CCCC2)NC(=O)[C@@H]2C[C@@H](OCc3cccc(C)c3)CN2C(=O)[C@H](CCc2ccc(C(F)(F)F)c(F)c2)NC(=O)CN(C)C(=O)[C@H](CC2CCCCC2)N(C)C(=O)CN(C)C(=O)CN(C)C1=O [Compound 2125] ([NMeL]I[Sar][Sar][NMeCha][Sar][hPhe(3-F,4-CF3)][Hyp](mXylylene)[Ac5c][NMeL][NMeD]-Piperidide; lactam N-11)	< 6.30
CC[C@H](C)[C@@H]1NC(=O)[C@H](CC(C)C)N(C)C(=O)C[C@@H](C(=O)N2CCCC2)N(C)C(=O)[C@H](C2CCCC2)N(C)C(=O)C2(CCCC2)NC(=O)[C@@H]2CCCN2C(=O)[C@H](CCc2ccc(C(F)(F)F)c(Cl)c2)NC(=O)CN(C)C(=O)[C@H](CC2CCCCC2)N(C)C(=O)[C@@H]2CCN2C(=O)[C@H](C)N(C)C1=O [Compound 1679] ([NMeL]I[NMeA][Aze][NMeCha][Sar][hPhe(3-Cl-4-CF3)]P[Ac5c][NMeGly(cPent)][NMeD]-Pyrrolidide; lactam N-11)	7.30 to 7.70
CC[C@H](C)[C@@H]1NC(=O)[C@H](CC(C)C)N(C)C(=O)C[C@@H](C(=O)N2CCCCC2)N(C)C(=O)[C@H](C2CCCCC2)N(C)C(=O)C2(CCCC2)NC(=O)[C@@H]2C[C@@H](c3ccccc3)CN2C(=O)[C@H](CCc2ccc(C(F)(F)F)c(Cl)c2)NC(=O)CN(C)C(=O)[C@H](CC2CCCCC2)N(C)C(=O)CN(C)C(=O)CN(C)C1=O [Compound 90] ([NMeL]I[Sar][Sar][NMeCha][Sar][hPhe(3-Cl-4-CF3)][Pro(trans-4-Ph)][Ac5c][NMeChg][NMeD]-Piperidide; lactam N-11)	6.30 to 7.00
CC[C@H](C)[C@@H]1NC(=O)[C@H](CCC(C)C)N(C)C(=O)C[C@@H](C(=O)N2CCOCC2)N(C)C(=O)[C@H](C2CCCC2)N(C)C(=O)C2(CCCC2)NC(=O)[C@@H]2CCCN2C(=O)[C@H](CCc2ccc(C(F)(F)F)c(Cl)c2)NC(=O)CN(C)C(=O)[C@H](CC2CCCCC2)N(C)C(=O)[C@@H]2CCN2C(=O)[C@H](C)NC1=O [Compound 1171] ([NMehLeu]IA[Aze][NMeCha][Sar][hPhe(3-Cl-4-CF3)]P[Ac5c][NMeGly(cPent)][NMeD]-Morpholide; lactam N-11)	7.30 to 7.70
CC[C@H](C)[C@@H]1NC(=O)[C@H]([C@@H](C)CC)N(C)C(=O)C[C@@H](C(=O)N2CCCCC2)N(C)C(=O)[C@H](C(C)C)N(C)C(=O)C2(CCCC2)NC(=O)[C@@H]2CCCN2C(=O)[C@H](CCc2ccc(C(F)(F)F)c(Cl)c2)NC(=O)CN(C)C(=O)[C@H](CC2CCCCC2)N(C)C(=O)[C@@H]2CCN2C(=O)[C@H](C)N(C)C1=O [Compound 1863] ([NMeI]I[NMeA][Aze][NMeCha][Sar][hPhe(3-Cl-4-CF3)]P[Ac5c][NMeV][NMeD]-Piperidide; lactam N-11)	6.30 to 7.00
CC[C@H](C)[C@@H]1NC(=O)[C@H](CC(C)C)N(C)C(=O)C[C@@H](C(=O)N2CCCCC2)N(C)C(=O)[C@H](CC(C)C)N(C)C(=O)C2(CCCC2)NC(=O)[C@@H]2C[C@@H](OCc3ccccc3C)CN2C(=O)[C@H](CCc2ccc(C(F)(F)F)c(F)c2)NC(=O)CN(C)C(=O)[C@H](CC2CCCCC2)N(C)C(=O)CN(C)C(=O)CN(C)C1=O [Compound 2139] ([NMeL]I[Sar][Sar][NMeCha][Sar][hPhe(3-F,4-CF3)][Hyp](oXylylene)[Ac5c][NMeL][NMeD]-Piperidide; lactam N-11)	6.30 to 7.00
CC[C@H](C)[C@@H]1NC(=O)[C@H](CC(C)C)N(C)C(=O)C[C@@H](C(=O)N2CCCCC2)N(C)C(=O)[C@H](C2CCCC2)N(C)C(=O)C2(CCCC2)NC(=O)[C@@H]2CCCN2C(=O)[C@H](CCc2ccc3occc3c2)NC(=O)CN(C)C(=O)[C@H](CC2CCCCC2)N(C)C(=O)[C@@H]2CCN2C(=O)[C@H](C)N(C)C1=O [Compound 2063] ([NMeL]I[NMeA][Aze][NMeCha][Sar][X86]P[Ac5c][NMeGly(cPent)][NMeD]-Piperidide; lactam N-11)	7.00 to 7.30
CCCC[C@H]1C(=O)N[C@@H]([C@@H](C)CC)C(=O)N(C)[C@@H](C)C(=O)N2CC[C@H]2C(=O)N(C)[C@@H](CC2CCCCC2)C(=O)N(C)CC(=O)N[C@@H](CCc2ccc(C(F)(F)F)c(Cl)c2)C(=O)N2CCC[C@H]2C(=O)NC2(CCCC2)C(=O)N(C)[C@@H](C(C)C)C(=O)N(C)[C@H](C(=O)N2CCCCC2)CC(=O)N1C [Compound 1616] ([NMeNle]I[NMeA][Aze][NMeCha][Sar][hPhe(3-Cl-4-CF3)]P[Ac5c][NMeV][NMeD]-Piperidide; lactam N-11)	6.30 to 7.00
CCCOC[C@H]1C(=O)N(C)CC(=O)N[C@@H](CCc2ccc(C(F)(F)F)c(Cl)c2)C(=O)N2CCC[C@H]2C(=O)NC2(CCCC2)C(=O)N(C)[C@@H](C2CCCC2)C(=O)N(C)[C@H](C)CC(=O)N(C)[C@@H](CC(C)C)C(=O)N[C@@H]([C@@H](C)CC)C(=O)N(C)[C@@H](C)C(=O)N2CC[C@H]2C(=O)N1C [Compound 366] (cyclo([Ac5c][NMeGly(cPent)][NMedβ3hAla][NMeL]I[NMeA][Aze][NMeS](Propyl)[Sar][hPhe(3-Cl-4-CF3)]P))	7.30 to 7.70
CC[C@H](C)[C@@H]1NC(=O)[C@H](CC(C)C)N(C)C(=O)C[C@@H](C(=O)N2CCCCC2)N(C)C(=O)[C@H](C2CCCCC2)N(C)C(=O)C2(CCCC2)NC(=O)[C@@H]2C[C@H](c3ccccc3)CN2C(=O)[C@H](CCc2ccc(C(F)(F)F)c(Cl)c2)NC(=O)CN(C)C(=O)[C@H](CC2CCCCC2)N(C)C(=O)[C@@H]2CCN2C(=O)CN(C)C1=O [Compound 960] ([NMeL]I[Sar][Aze][NMeCha][Sar][hPhe(3-Cl-4-CF3)][Pro(cis-4-Ph)][Ac5c][NMeChg][NMeD]-Piperidide; lactam N-11)	6.30 to 7.00
